Source: patent US12661384B2, “Methods for inducing cell division of postmitotic cells” (priority 2015, dated 2026)

System: Human embryonic stem cell-derived cardiomyocytes
Experiment: Screen of factor cocktails: PHH3 staining and total nuclei
Assay type: cell-based
Protocol: To determine an optimal cocktail of factors for inducing cell proliferation and/or cell cycle reentry of human postmitotic cardiomyocytes, combinations of factors were screened. […] Cells were treated with combinations of CDK1AF, CDK4, CCNB1, CCND1, AURKB or GFP control adenovirus, with or without combinations of TGF-βi (SB431542, “SB”), a […] (MK1775, “MK”), and IGF1. Analysis was performed to identify cocktails of factors that increased the number of cells undergoing mitosis as assessed by increased phospho-histone H3 staining at 4-, 8-, and 12-days after treatment with factor cocktails. FIG. 10, panel A. Analysis was also performed to identify which cocktails of factors had the highest cell survival as assessed by the increase in total number of nuclei. FIG. 10, panel B.

| Compound | cell survival (total number of nuclei) (4, 8 and 12 days after treatment) | replacement of factors in the cocktail (activation of CDK1 with small molecule) |
| --- | --- | --- |
| NC(=O)c1ccc(-c2nc(-c3ccc4c(c3)OCO4)c(-c3ccccn3)[nH]2)cc1 [SB431542] | enhanced survival |  |
| C=CCn1c(=O)c2cnc(Nc3ccc(N4CCN(C)CC4)cc3)nc2n1-c1cccc(C(C)(C)O)n1 [MK1775] |  | could replace CDK1 and CCNB1 from the cocktail |
